Data as given in patent US20060183794A1, “Drug composition containing nf-kb inhibitor” (priority 2002, published 2006).

How the values were obtained:
[1] = system: adhesion of leukocytes and HL-60 cells to HUVECs; assay: Adhesion of leukocytes and HL-60 cells to TNF-α-stimulated HUVECs; type: cell-based, human; details: DHMEQ 3 μg/ml; TNF-α stimulation 3, 6, 9 hours
Experimental: HUVECs were plated 24 well plates and confluently cultured. The culture medium was composed of 9.8 g/l medium 199 (provided from Nissui), 1.8 g/l NaHCO3 (Wako), 10 ml/l 1M Hepes buffer (Sigma), 30 mg/l ECGS (Becton Dickinson), 6 ml/l heparin sodium injection (Takeda Pharmaceutical), and 10% heat-inactivated FBS (JRH). Subsequently, the following experiments were conducted. […] In this experiment, mononuclear cells isolated by the specific gravity centrifugation method were used as leukocytes.
After stimulation with TNF-α, the wells were washed twice with HBSS+ (provided from Nissui) and the culture medium was changed to 500 μl of a fresh medium composed of 9.8 g/l medium 199 (provided from Nissui), 1.8 g/l NaHCO3 (Wako), 10 ml/l 1M Hepes buffer (Sigma), 30 mg/l ECGS (Becton Dickinson), 6 ml/l heparin sodium injection (Takeda Pharmaceutical), and 10% heat-inactivated FBS (JRH). Leukocytes and HL-60 cells were placed in wells at 2×10^5 cells/well and 7×10^4 cells/well, respectively. […] That state was photographed and the number of cells adhered to HUVECs was counted.

K562 = assay: Hoechst staining apoptosis assay, control cell line K562; type: cell-based; details: 10 μg/ml, 72 hours
Experimental: DHM2EQ was added to the ATL cell lines (MT-1 and TL-Om1) and a control cell line (K562) at a final concentration of 10 μg/ml, followed by incubation for 72 hours. Subsequently, apoptosis was examined by observing nuclear […] or fragmentation on Hoechst staining with a fluorescence microscope. Cells to which the solvent DMSO had been added in equal volume were also examined in the same manner.

[2] = system: multiple myeloma cell line 196TIB; assay: MTT assay, proliferation of multiple myeloma cell line 196TIB; type: cell-based
Experimental: Cells from the ATL cell lines (MT-1 and TL-Om1) and a control cell line (K562) were plated in 96-well plates at 1×10^5 cells/well and DHM2EQ was added at the desired final concentrations (2, 5, and 10 μg/ml). Cells to which the solvent DMSO had been added in equal volume (0 μg/ml) were used as […] incubation for 72 hours, cell viability was judged by the MTT assay. Relative MTT values were obtained as the ratio of the MMT values of DHM2EQ-treated cells to those of DHM2EQ-untreated cells, i.e., (MTT values of DHM2EQ-treated cells/MTT values of DHM2EQ-untreated cells)×100(%).
Concentration dependence analysis of the inhibitory effect of DHM2EQ on proliferation of multiple myeloma cells was performed in the same manner as in Example 2. As multiple myeloma cells, the multiple myeloma cell line 196TIB was used.

[3] = system: human breast cancer cell line MCF-7; assay: In vitro proliferation of MCF-7 (trypan blue cell count); type: cell-based
Experimental: The human breast cancer cell line MCF-7 (NF-κB non-constitutively activated tumor) was incubated in 24, 48, and 72 hours in the presence of 10 and 50 μg/ml DHMEQ, and the proliferation-suppressive effect was examined.
MCF-7 was plated in 6 well plates at 1×10^5/well. The next day, the culture media were changed into those (5 ml) containing DHMEQ at 10 and 50 μg/ml and into the control medium (5 ml) containing only DMSO, which is used for dissolution of DHMEQ, in equal amount to those containing each concentration of DHMEQ. The assay was performed in three wells per each group. Immediately after the change, cells were incubated for 24, 48, and 72 hours. Subsequently, the cells were scraped with trypsin+EDTA. The number of cells was counted with trypan blue and averages as well as standard deviations were calculated. Data for each group were obtained and plotted in comparison with the control cells treated with DMSO only.

NF-κB [4] = target: T1, NF-κB (Homo sapiens, UniProt P19838+Q04206); assay: Gel shift assay of constitutive NF-κB activation in multiple myeloma cell lines; type: cell-based; parameters: endogenous in cells; host or cells: MM cell lines KMM1, RPMI8226, U266
Experimental: The ATL cell lines (MT-1 and TL-Om1) and the control cell lines (K562 and Jurkat+TNF), 2×10^6 cells each, were treated with 10 μg/ml DHM2EQ for 12 hours, and nuclear extract was prepared from each cell line. Likewise, nuclear extract was prepared also from the cell lines not treated with DHM2EQ. MT-1 and TL-Om1 are the cell lines transformed with HTLV-1; NF-κB is activated in these cell lines. K562 (myelocytic leukemia cell line) is a cell line in which constitutive NF-κB is not confirmed (a negative control), and Jurkat+TNF is a […] consensus oligomers (Promega) were end-labeled with [γ-^32P]-ATP and polynucleotide kinase (PNK) to prepare ^32P-labeled NF-κB probes.
The equivalent of 2 μg of nuclear extract protein was mixed with NF-κB probes (the equivalent of 10,000 cpm) in a volume of 20 μl and reacted at room temperature for 30 min. The solution after the reaction was subjected to 7.5% polyacrylamide gel electrophoresis. The gel was then dried and exposed to an X-ray film.
The MM cell lines, KMM1, RPMI8226, and U266 (2×10^6 cells each) were treated with 10 μg/ml of DHMEQ for 12 hours, and nuclear extract was prepared from each cell line. The gel shift assay was performed in the same method as in Example 4 and the inhibitory effect of DHMEQ on NF-κB was examined. […] The TNF-treated Jurkat (Jurkat+TNF) was used as the positive control.
Next, the MM cell lines, KMM1, RPMI8226, and U266 were treated with 10 μg/ml DHMEQ for 12 hours, and nuclear extract was prepared from each cell line. The gel shift assay was performed in the same method as in Example 4 (1) and the time-course inhibitory effect on NF-κB was examined.
Target sequence in this assay (Q04206 whole entry): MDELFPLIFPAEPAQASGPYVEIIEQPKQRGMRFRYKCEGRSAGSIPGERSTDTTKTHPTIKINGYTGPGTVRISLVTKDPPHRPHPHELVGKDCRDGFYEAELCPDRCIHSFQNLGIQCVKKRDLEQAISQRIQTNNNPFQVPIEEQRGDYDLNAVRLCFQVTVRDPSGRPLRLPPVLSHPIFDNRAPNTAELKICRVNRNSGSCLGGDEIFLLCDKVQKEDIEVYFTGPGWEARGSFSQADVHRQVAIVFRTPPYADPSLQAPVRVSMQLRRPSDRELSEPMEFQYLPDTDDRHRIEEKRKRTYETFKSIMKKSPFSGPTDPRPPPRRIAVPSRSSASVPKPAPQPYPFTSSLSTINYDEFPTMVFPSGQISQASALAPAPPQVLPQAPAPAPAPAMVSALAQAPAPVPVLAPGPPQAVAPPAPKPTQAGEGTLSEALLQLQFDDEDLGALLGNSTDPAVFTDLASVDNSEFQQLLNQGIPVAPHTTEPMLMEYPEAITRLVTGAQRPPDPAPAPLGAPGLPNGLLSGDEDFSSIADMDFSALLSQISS
Target sequence in this assay (P19838 1-433 limits assumed): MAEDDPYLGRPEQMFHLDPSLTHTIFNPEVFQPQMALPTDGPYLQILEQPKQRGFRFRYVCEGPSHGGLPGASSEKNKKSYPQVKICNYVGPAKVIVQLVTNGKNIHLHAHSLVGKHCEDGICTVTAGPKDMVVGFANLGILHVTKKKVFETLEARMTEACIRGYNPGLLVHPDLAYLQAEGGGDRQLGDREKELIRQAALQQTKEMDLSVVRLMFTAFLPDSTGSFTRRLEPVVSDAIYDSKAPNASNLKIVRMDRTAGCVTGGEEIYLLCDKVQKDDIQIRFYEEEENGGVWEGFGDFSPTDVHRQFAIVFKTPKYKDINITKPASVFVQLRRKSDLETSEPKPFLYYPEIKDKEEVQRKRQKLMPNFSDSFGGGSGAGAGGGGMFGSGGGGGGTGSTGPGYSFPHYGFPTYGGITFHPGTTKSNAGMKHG

NF-κB [5] = target: T1, NF-κB; assay: Gel shift assay of NF-κB activation by antitumor agents in KMH2 cells; type: cell-based; parameters: endogenous in cells; host or cells: HL cell lines KMH2, L428, L540, HDLM2 (A30: KMH2 treated with antitumor agents); details: camptothecin or daunomycin with concurrent DHMEQ
Target sequence in this assay (P19838 1-433 limits assumed): as above
Target sequence in this assay (Q04206 whole entry): as the sequence (Q04206 whole entry) above

## O=C(NC1=CC(=O)C2OC2C1O)c1ccccc1O (centres unmarked) [DHMEQ, 5,6-epoxy-4-hydroxy-3-salicyloylamino-2-cyclohexenone]
[1]
  adhesion of leukocytes and HL-60 cells to HUVECs: markedly suppressed
K562
  apoptosis (Hoechst staining): apoptosis was not observed
[2]
  cell proliferation, concentration dependence: inhibited in proportion to the DHM2EQ concentrations added
[3]; 10 μg/ml, 24 hours
  cells survived compared with the control: 39%
[3]; 10 μg/ml, 48 hours
  cells survived compared with the control: 25%
[3]; 10 μg/ml, 72 hours
  cells survived compared with the control: 17%
[3]; 50 μ/ml, in and after 24 hours
  cells survived compared with the control: no cells were observed to survive
NF-κB [4]; KMM1, RPMI8226, U266, 10 μg/ml DHMEQ, 12 hours
  signals by NF-κB (gel shift): lost
NF-κB [4]; MM cell lines, 10 μg/ml
  persistence of inhibition of NF-κB activation: sustained even after a lapse of 16 hours
NF-κB [4]; MM cell lines, 10 μg/ml, 1 hour after treatment
  activation of NF-κB, time course (gel shift): almost inhibited
NF-κB [5]
  NF-κB induction by antitumor agent: strongly suppressed
